Measurements: US20050014765A1, “Aryl-heteroaromatic products, compositions comprising them and use” (Aventis Pharma S.A., priority 2003, published 2005)

Key:
[1] = target: T1, Tubulin purified from pig brains (Sus scrofa, UniProt P02550+P02554); experiment: Assessment of the inhibition of tubulin polymerization (turbidimetry at 350 nm); assay type: biochemical; settings: concentration which inhibits the rate of polymerization by 50%; tubulin 1 mg/ml, 37° C.; read-out: Inhibition of tubulin polymerization IC 50
T1 construct: Tubulin is purified from pig brains according to published methods; from tissue; host or cells: pig brain
T1 sequence (P02550 whole entry): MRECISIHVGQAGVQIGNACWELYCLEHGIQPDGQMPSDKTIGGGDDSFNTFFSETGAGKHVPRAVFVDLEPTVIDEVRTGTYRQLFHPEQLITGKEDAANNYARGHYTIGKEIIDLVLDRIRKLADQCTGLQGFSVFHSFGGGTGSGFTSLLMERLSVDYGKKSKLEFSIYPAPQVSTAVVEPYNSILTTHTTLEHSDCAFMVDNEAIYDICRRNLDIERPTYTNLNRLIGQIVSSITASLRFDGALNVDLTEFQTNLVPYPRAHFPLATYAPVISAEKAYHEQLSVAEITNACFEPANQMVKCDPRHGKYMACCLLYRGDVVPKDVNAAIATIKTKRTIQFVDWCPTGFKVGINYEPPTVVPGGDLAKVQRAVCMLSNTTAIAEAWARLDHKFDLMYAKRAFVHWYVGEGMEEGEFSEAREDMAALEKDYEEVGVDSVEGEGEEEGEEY
T1 sequence (P02554 whole entry): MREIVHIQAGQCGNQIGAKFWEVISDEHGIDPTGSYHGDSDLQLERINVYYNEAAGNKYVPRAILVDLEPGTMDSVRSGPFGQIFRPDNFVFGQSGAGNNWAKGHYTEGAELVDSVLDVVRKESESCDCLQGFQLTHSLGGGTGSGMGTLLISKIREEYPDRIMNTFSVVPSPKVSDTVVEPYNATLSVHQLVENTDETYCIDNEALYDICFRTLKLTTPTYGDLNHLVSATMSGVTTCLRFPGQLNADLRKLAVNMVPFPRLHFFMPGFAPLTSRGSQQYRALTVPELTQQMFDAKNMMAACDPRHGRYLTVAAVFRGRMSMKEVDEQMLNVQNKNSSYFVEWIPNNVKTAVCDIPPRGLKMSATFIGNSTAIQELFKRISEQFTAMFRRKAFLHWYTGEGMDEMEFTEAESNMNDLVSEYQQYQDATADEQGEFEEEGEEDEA
Description: Assessment of the Inhibition of Tubulin Polymerization
Tubulin is purified from pig brains according to published methods (Shelanski et al., 1973, Proc. Natl. Acad. Sci. USA, 70, 765-768. Weingarten et al., 1975, Proc. Natl. Acad. Sci. USA, 72, 1858-1862). Briefly, the brains are ground and centrifuged in an extraction buffer. The tubulin, present in the extract supernatant is subjected to two successive cycles of polymerization at 37° C. and depolymerization at 4° C., before being separated from the MAPs (Microtubule Associated Proteins) by chromatography on a phosphocellulose P11 column (Whatman). The tubulin thus isolated is more than 95% pure. It is stored in a buffer known as RB/2 30% glycerol, the composition of which is 50 mM MES-NaOH [2-(N-morpholino)ethanesulfonic acid], pH 6.8; 0.25 mM MgCl2; 0.5 mM EGTA; 30% (v/v) glycerol, 0.2 mM GTP (guanosine 5′-triphosphate).
The polymerization of the tubulin into microtubules is monitored by turbidimetry as follows: the tubulin is adjusted to a concentration of 10 μm (1 mg/ml) in the RB/2 30% glycerol buffer, to which are added 1 mM GTP and 6 mM MgCl2. The polymerization is initiated by increasing the temperature from 6° C. to 37° C. in a cuvette with a 1 cm optical pathlength, placed in a UVIKON 931 spectrophotometer (Kontron) equipped with a thermostatically-regulated cuvette holder. The increase in turbidity of the solution is monitored at 350 nm.
The products are dissolved at 10 mM in DMSO and added at variable concentrations (0.5 to 10 μm) to the tubulin solution before polymerization. The IC50 is defined as the concentration of the product which inhibits the rate of polymerization by 50%.

HCT116 cells = experiment: Inhibition of proliferation of the HCT116 human colon tumor line ([14C]-thymidine incorporation); assay type: cell-based; settings: HCT-116, 48 hours incubation at 37° C., read-out: Inhibition of HCT116 proliferation IC 50
Description: Test for Determining the Inhibition of Proliferation of the HCT116 Human Colon Tumor Line
The proliferation of HCT116 cells is evaluated by mesuring the incorporation of [^14C]-thymidine in the following way. The HCT166 cells (from the ATCC) are cultured in a DMEM medium (Gibco) which contains 10% of fetal calf serum and antibiotics (1% penicillin, 1% streptomycin). To perform the proliferation test, the cells are seeded into 96-well cytostar microplates (Amersham) at the rate of 5000 cells per well. The [^14C]-thymidine (0.1 μCi/well) and the products to be evaluated are subsequently added. Variable concentrations of products up to 10 μM are used; the DMSO (solvent used to dissolve the products) should not exceed 0.5% in the medium. 48 hours after incubation at 37° C., the radioactivity incorporated into the cells is measured by counting the plate in a Tri-Lux counter (Wallac). The IC50 is defined as the concentration of product which reduces the radioactivity by 50% compared with an untreated control. A product with an IC50 of less than 10 μm is regarded as cytotoxic.

melting point [°C]	IC50 [1] [nM]	IC50 (HCT116 cells) [nM]	SMILES
196	600	1.3	COc1cc(OC)cc(N2CCN(C(=O)c3[nH]cnc3-c3ccccc3)CC2)c1 [Example 9, [4-(3,5-Dimethoxyphenyl)piperazin-1-yl](4-phenyl-1H-imidazol-5-yl)-methanone]
> 260	750	28.7	O=C(c1nc(S)[nH]c1-c1ccccc1)N1CCN(c2cccc(Cl)c2)CC1 [Example 19, [4-(3-Chlorophenyl)piperazin-1-yl](2-mercapto-5-phenyl-1H-imidazol-4-yl)-methanone]
130	1900	15.1	COc1cc(OC)cc(N2CCN(C(=O)c3ccn(C)c3-c3ccccc3)CC2)c1 [Example 27, [4-(3,5-Dimethoxyphenyl)piperazin-1-yl](1-methyl-2-phenyl-1H-pyrrol-3-yl)-methanone]
130	1100	1.5	COc1cc(OC)cc(N2CCN(C(=O)c3[nH]c(O)nc3-c3ccccc3)CC2)c1 [Example 28, [4-(3,5-Dimethoxyphenyl)piperazin-1-yl](2-hydroxy-5-phenyl-1H-imidazol-4-yl)methanone]
202	500	1360	NC(=O)c1cccc(N2CCN(C(=O)c3nc(O)[nH]c3-c3ccccc3)CC2)c1 [Example 51, 3-[4-(2-Hydroxy-4-phenyl-1H-imidazol-5-yl-carbonyl)piperazin-1-yl]benzamide]
247	400	100	N#Cc1cccc(N2CCN(C(=O)c3[nH]c(S)nc3-c3ccccc3)CC2)c1 [Example 52, 3-[4-(2-Mercapto-4-phenyl-1H-imidazol-5-yl-carbonyl)piperazin-1-yl]-benzonitrile]
157	810	46	COc1cc(OC)cc(N2CCN(C(=O)c3ccn(CCO)c3-c3ccccc3)CC2)c1 [Example 53, [4-(3,5-Dimethoxyphenyl)piperazin-1-yl][1-(2-hydroxyethyl)-2-phenyl-1H-pyrrol-3-yl]methanone]
173	795	17	O=C(c1[nH]c(O)nc1-c1ccccc1)N1CCN(c2cccc(CO)c2)CC1 [Example 57, [4-(3-Hydroxymethylphenyl)piperazin-1-yl](2-hydroxy-4-phenyl-1H-imidazol-5-yl)methanone]
	990	11	Cc1nc(-c2ccccc2)c(C(=O)N2CCN(c3cccc(C#N)c3)CC2)[nH]1 [Example 60, 3-[4-(2-Methyl-5-phenyl-1H-imidazol-4-ylcarbonyl)piperazin-1-yl]benzonitrile]
	2320	40	N#Cc1cccc(N2CCN(C(=O)c3c[nH]cc3-c3ccccc3)CC2)c1 [Example 61, 3-[4-(4-Phenyl-1H-pyrrol-3-ylcarbonyl)piperazin-1-yl]benzonitrile]
	570	8	COc1cc(OC)cc(N2CCN(C(=O)c3[nH]c(C(F)(F)F)nc3-c3ccccc3)CC2)c1 [Example 62, [4-(3,5-Dimethoxyphenyl)piperazin-1-yl](2-trifluoromethyl-4-phenyl-1H-imidazol-5-yl)methanone]
150	4000		COc1cc(OC)cc(N2CCN(C(=O)c3ccn(C(C)=O)c3-c3ccccc3)CC2)c1 [Example 63, [4-(3,5-Dimethoxyphenyl)piperazin-1-yl](1-acetyl-2-phenyl-1H-pyrrol-3-yl)methanone]
	2430	2030	NC(=O)c1cccc(N2CCN(C(=O)c3cn(CCO)cc3-c3ccccc3)CC2)c1 [Example 66, 3-[4-(1-Hydroxyethyl-4-phenyl-1H-pyrrol-3-ylcarbonyl)piperazin-1-yl]benzamide]
	1650	2700	COc1cc(OC)cc(N2CCN(C(=O)c3[nH]c(S(C)(=O)=O)nc3-c3ccccc3)CC2)c1 [Example 67, [4-(3,5-Dimethoxyphenyl)piperazin-1-yl](2-methylsulfonyl-4-phenyl-1H-imidazol-5-yl)methanone]
	480	13	O=C(c1[nH]cnc1-c1ccccc1)N1CCN(c2cccc(CO)c2)CC1 [Example 68, [4-(3-Hydroxymethylphenyl)piperazin-1-yl](4-phenyl-1H-imidazol-5-yl)methanone]
	710	45	Cn1cc(C(=O)N2CCN(c3cccc(CO)c3)CC2)c(-c2ccccc2)c1 [Example 69]
198	3750		CS(=O)(=O)c1nc(-c2ccccc2)c(C(=O)N2CCN(c3cccc(C#N)c3)CC2)[nH]1 [Example 70, 3-[4-(2-Methylsulfonyl-4-phenyl-1H-imidazol-4-ylcarbonyl)piperazin-1-yl]benzonitrile]
	580	29.5	N#Cc1cccc(N2CCN(C(=O)c3cn(CO)cc3-c3ccccc3)CC2)c1 [Example 72, 3-[4-(1-Hydroxymethyl-4-phenyl-1H-pyrrol-3-ylcarbonyl)piperazin-1-yl]benzonitrile]
	18400	2700	NC(=O)c1cccc(N2CCN(C(=O)c3c(-c4ccccc4)ccn3CC(=O)O)CC2)c1 [Example 73, {2-[4-(3-Carbamoylphenyl)piperazin-1-ylcarbonyl]-3-phenylpyrrol-1-yl}acetic acid]
80	3050	52	N#Cc1cccc(N2CCN(C(=O)c3cc[nH]c3-c3ccccc3)CC2)c1 [Example 74, 3-[4-(2-Phenyl-1H-pyrrol-3-ylcarbonyl)piperazin-1-yl]benzonitrile]
198	1010	11.5	N#Cc1cccc(N2CCN(C(=O)c3[nH]c(O)nc3-c3ccccc3)CC2)c1 [Example 75, 3-[4-(2-Hydroxy-4-phenyl-1H-imidazol-5-ylcarbonyl)piperazin-1-yl]-benzonitrile]
	970	101	Cc1nc(-c2ccccc2)c(C(=O)N2CCN(c3cccc(CO)c3)CC2)[nH]1 [Example 76, [4-(3-Hydroxymethylphenyl)piperazin-1-yl](2-methyl-4-phenyl-1H-imidazol-5-yl)methanone]
	725	244	O=C(c1[nH]c(S)nc1-c1ccccc1)N1CCN(c2cccc(CO)c2)CC1 [Example 78, [4-(3-Hydroxymethylphenyl)piperazin-1-yl](2-mercapto-4-phenyl-1H-imidazol-5-yl)methanone]
	493	11.7	CSc1nc(-c2ccccc2)c(C(=O)N2CCN(c3cccc(CO)c3)CC2)[nH]1 [Example 79, [4-(3-Hydroxymethylphenyl)piperazin-1-yl](2-methylsulfanyl-4-phenyl-1H-imidazol-5-yl)methanone]
158	2400	307	N#Cc1cccc(N2CCN(C(=O)c3ccn(CCO)c3-c3ccccc3)CC2)c1 [Example 81, 3-[4-(1-Hydroxyethyl-2-phenyl-1H-pyrrol-3-ylcarbonyl)piperazin-1-yl]-benzonitrile]
246	294		N#Cc1cccc(N2CCN(C(=O)c3sc(N)nc3-c3ccccc3)CC2)c1 [Example 82, 3-[4-(2-Amino-4-phenylthiazol-5-ylcarbonyl)piperazin-1-yl]benzonitrile]
236	685		NC(=O)c1cccc(N2CCN(C(=O)c3sc(N)nc3-c3ccccc3)CC2)c1 [Example 85, 3-[4-(2-Amino-4-phenyl-thiazol-5-ylcarbonyl)piperazin-1-yl]benzamide]
176	715		Nc1nc(-c2ccccc2)c(C(=O)N2CCN(c3cccc(CO)c3)CC2)s1 [Example 88, [4-(3-Hydroxymethylphenyl)piperazin-1-yl](2-amino-4-phenylthiazol-5-yl)-methanone]
